Read-outs that look alike come from different tables or passages of the source.
Target: T1, APOL1 G1 (Homo sapiens, UniProt O14791, I384M/S342G)
T1 sequence (O14791 28-398 S342G/I384M): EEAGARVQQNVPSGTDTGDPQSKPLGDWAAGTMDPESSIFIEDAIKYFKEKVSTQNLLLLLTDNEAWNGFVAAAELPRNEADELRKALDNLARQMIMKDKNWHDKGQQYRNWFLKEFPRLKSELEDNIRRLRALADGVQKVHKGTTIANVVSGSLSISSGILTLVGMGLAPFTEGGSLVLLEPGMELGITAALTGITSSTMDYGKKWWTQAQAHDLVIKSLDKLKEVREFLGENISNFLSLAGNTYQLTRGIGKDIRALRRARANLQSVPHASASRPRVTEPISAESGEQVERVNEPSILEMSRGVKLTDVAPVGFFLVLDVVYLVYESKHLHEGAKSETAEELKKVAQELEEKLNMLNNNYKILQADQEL
Assay: MultiTox-Fluor Multiplex Cytotoxicity Assay, tet-inducible APOL1 G1 T-REx-HEK293 cells
Format: cell-based
Parameters: expressed in transfected cells; host or cells: T-REx HEK293, clone G1 DC3.25 (pAAVS1-Puro-APOL1 G1)
Conditions: for Emax: read-out: Multi-Tox Assay Max Activity (%)
Procedure, shortened: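 T-REx-HEK293 cells carrying tet-inducible APOL1 G1 induced with 50 ng/mL tet alongside compound (top 10 µM, 10-point 3-fold, duplicate) for 24 h at 37 °C. MultiTox-Fluor dead/live protease fluorescence ratio read after 30 min; normalized to no-tet (100% viability) and tet-treated (0%) controls, then curve-fitted.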

[1] = HEK293, Multi-Tox Assay, APOL1 variant (G0/G1/G2) of the HEK293 cells not given, read-out: Multi-Tox Assay IC90
[2] = Multi-Tox Assay, APOL1 variant not given

Cc1nn(CCO)cc1[C@@H]1C[C@]2(C[C@H](C)N1)OCCc1cc(Cl)sc12 (racemic) [Compound 158]
IC90 [1]: > 500 nM | Multi-Tox Assay Max Activity (%) [2]: 90.4%

Cc1nc([C@@H]2C[C@]3(C[C@H](C)N2)OCCc2cc(Cl)sc23)cn1C (racemic) [Compound 159]
IC90 [1]: > 500 nM | Multi-Tox Assay Max Activity (%) [2]: 92.2%

C[C@H]1C[C@@]2(C[C@@H](c3cnccc3O)N1)OCCc1cc(Cl)sc12 (racemic) [Compound 160]
IC90 [1]: > 500 nM | Multi-Tox Assay Max Activity (%) [2]: 94.3%

Cc1nc[nH]c1[C@@H]1C[C@]2(C[C@H](C)N1)OCCc1cc(Cl)sc12 (racemic) [Compound 161]
IC90 [1]: > 500 nM | Multi-Tox Assay Max Activity (%) [2]: 92.4%

CC(C)c1c[nH]c([C@@H]2C[C@]3(C[C@H](C)N2)OCCc2cc(Cl)sc23)n1 (racemic) [Compound 162]
IC90 [1]: > 500 nM | Multi-Tox Assay Max Activity (%) [2]: 92.0%

C[C@H]1C[C@@]2(C[C@@H](c3cnn4c3OCCC4)N1)OCCc1cc(Cl)sc12 (racemic) [Compound 163]
IC90 [1]: > 500 nM | Multi-Tox Assay Max Activity (%) [2]: 92.7%

Cc1nccnc1[C@@H]1C[C@]2(C[C@H](C)N1)OCCc1cc(Cl)sc12 (racemic) [Compound 164]
IC90 [1]: > 500 nM | Multi-Tox Assay Max Activity (%) [2]: 91.7%

C[C@H]1C[C@@]2(C[C@@H](c3ncc(C(F)(F)F)[nH]3)N1)OCCc1cc(Cl)sc12 (racemic) [Compound 165]
IC90 [1]: > 500 nM | Multi-Tox Assay Max Activity (%) [2]: 92.0%

COc1cccc([C@@H]2C[C@]3(C[C@H](C)N2)OCCc2cc(Cl)sc23)c1O (racemic) [Compound 166]
IC90 [1]: > 500 nM | Multi-Tox Assay Max Activity (%) [2]: 96.7%

Cc1cccnc1[C@@H]1C[C@]2(C[C@H](C)N1)OCCc1cc(Cl)sc12 (racemic) [Compound 167]
IC90 [1]: > 500 nM | Multi-Tox Assay Max Activity (%) [2]: 89.7%

C[C@H]1C[C@@]2(C[C@@H](c3cccc4cn[nH]c34)N1)OCCc1cc(Cl)sc12 (racemic) [Compound 168]
IC90 [1]: > 500 nM | Multi-Tox Assay Max Activity (%) [2]: 89.0%

C[C@H]1C[C@@]2(C[C@@H](c3n[nH]c4ccccc34)N1)OCCc1cc(Cl)sc12 (racemic) [Compound 169]
IC90 [1]: > 500 nM | Multi-Tox Assay Max Activity (%) [2]: 86.8%

Cc1nc2c([C@@H]3C[C@]4(C[C@H](C)N3)OCCc3cc(Cl)sc34)cccc2o1 (racemic) [Compound 170]
IC90 [1]: > 500 nM | Multi-Tox Assay Max Activity (%) [2]: 89.7%

C[C@H]1C[C@@]2(C[C@@H](c3ncnn3C)N1)OCCc1cc(Cl)sc12 (racemic) [Compound 171]
IC90 [1]: > 500 nM | Multi-Tox Assay Max Activity (%) [2]: 71.8%

C[C@H]1C[C@@]2(C[C@@H](c3ncccc3O)N1)OCCc1cc(Cl)sc12 (racemic) [Compound 172]
IC90 [1]: > 500 nM | Multi-Tox Assay Max Activity (%) [2]: 52.0%

C[C@@H]1C[C@]2(C[C@H](C)N1)OCC(O)c1cc(Cl)sc12 (mixture of isomers) [Compound 205, (2R,6S)-2-chloro-2',6'-dimethyl-spiro[4,5-dihydrothieno[2,3-c]pyran-7,4'-piperidine]-4-ol]
IC90 (HEK293, read-out: Multi-Tox Assay IC90 (nM)): 50 to 500 nM | Emax: 99.3%

Cc1cc2c(s1)C1(CC(C)NC(c3cn(C)nn3)C1)OCC2 (single isomer, unassigned) [Compound 3]
IC90 [1]: < 50 nM | Emax [2]: 99.7%

CCc1cc2c(s1)CCOC21CC(C)NC(c2cn(C)nn2)C1 (single isomer, unassigned) [Compound 4]
IC90 [1]: < 50 nM | Emax [2]: 99.3%

CCc1cc2c(s1)C1(CC(C)NC(c3cn(C)nn3)C1)OCC2 (single isomer, unassigned) [Compound 6]
IC90 [1]: < 50 nM | Emax [2]: 99.7%

CCc1cc2c(s1)C(C)COC21C[C@@H](c2cn(C)nn2)N[C@@H](C)C1 (single isomer, unassigned) [Compound 10]
IC90 [1]: < 50 nM | Multi-Tox Assay Max Activity (%) [2]: 99.7%

CC1COC2(C[C@@H](c3cn(C)nn3)N[C@@H](C)C2)c2cc(Cl)sc21 (single isomer, unassigned) [Compound 12]
IC90 [1]: < 50 nM | Multi-Tox Assay Max Activity (%) [2]: 99.3%

C[C@H]1CC2(C[C@@H](c3cn(C)nn3)N1)OCC(C)(C)c1sc(Cl)cc12 (single isomer, unassigned) [Compound 15]
IC90 [1]: < 50 nM

C[C@H]1CC2(C[C@@H](c3cn(C)nn3)N1)OCC(C)(C)c1sc(C(F)(F)F)cc12 (single isomer, unassigned) [Compound 16]
IC90 [1]: 50 to 500 nM | Multi-Tox Assay Max Activity (%) [2]: 100.0%

C[C@H]1CC2(C[C@@H](c3cn(C)nn3)N1)OCCc1sc(Cl)cc12 (single isomer, unassigned) [Compound 173]
IC90 [1]: < 50 nM | Emax [2]: 99.5%

C[C@H]1CC2(CC(c3cn(C)cn3)N1)OCC(O)c1cc(Cl)sc12 (single isomer, unassigned) [Compound 178]
IC90 [1]: < 50 nM | Emax [2]: 99.7%

C[C@H]1C[C@@]2(C[C@@H](c3cn(C)nn3)N1)OCC(O)(C(F)F)c1cc(Cl)sc12 (single isomer, unassigned) [Compound 184]
IC90 [1]: 50 to 500 nM | Emax [2]: 99.3%

C[C@@H]1CC2(C[C@H](C)N1)OCCc1sc(C(F)(F)F)cc12 (single isomer, unassigned) [Compound 196]
IC90 [1]: 50 to 500 nM | Emax [2]: 99%

C[C@@H]1CC2(C[C@H](C)N1)OCCc1cc(Br)sc12 (single isomer, unassigned) [Compound 197]
IC90 [1]: 50 to 500 nM | Emax [2]: 99%

C[C@@H]1CC2(C[C@H](C)N1)OCCc1cc(C3CC(F)(F)C3)sc12 (single isomer, unassigned) [Compound 198]
IC90 [1]: 50 to 500 nM | Emax [2]: 98.7%

CCc1cc2c(s1)C1(C[C@@H](C)N[C@@H](C)C1)OCC2 (single isomer, unassigned) [Compound 199]
IC90 [1]: 50 to 500 nM | Emax [2]: 99.3%

CC(C)c1cc2c(s1)C1(C[C@@H](C)N[C@@H](C)C1)OCC2 (single isomer, unassigned) [Compound 200]
IC90 [1]: > 500 nM | Emax [2]: 97%

CC(C)Cc1cc2c(s1)C1(C[C@@H](C)N[C@@H](C)C1)OCC2 (single isomer, unassigned) [Compound 201]
IC90 [1]: > 500 nM | Emax [2]: 95%

C[C@@H]1CC2(C[C@H](C)N1)OCCc1cc(C3CCCCC3)sc12 (single isomer, unassigned) [Compound 202]
IC90 [1]: > 500 nM | Emax [2]: 94.7%

C[C@@H]1CC2(C[C@H](C)N1)OCCc1cc(CC(F)F)sc12 (single isomer, unassigned) [Compound 203]
IC90 [1]: < 50 nM | Emax [2]: 99.3%

C[C@@H]1CC2(C[C@H](C)N1)OCCc1cc(Cl)sc12 (single isomer, unassigned) [Compound 204]
IC90 [1]: 50 to 500 nM | Emax [2]: 99%

Clc1cc2c(s1)C1(C[C@@H](C3CC3)N[C@@H](C3CC3)C1)OCC2 (single isomer, unassigned) [Compound 206]
IC90 [1]: 50 to 500 nM | Emax [2]: 99.3%

C[C@@H]1CC2(C[C@H](C)N1)OCCc1cc(C(F)(F)F)sc12 (single isomer, unassigned) [Compound 207]
IC90 [1]: 50 to 500 nM | Emax [2]: 100%

C[C@@H]1CC2(C[C@H](C)N1)OCCc1c2sc(C(F)(F)F)c1CO (single isomer, unassigned) [Compound 208]
IC90 [1]: 50 to 500 nM | Emax [2]: 99.5%

CC1CC2(CC(C3CC3(F)F)N1)OCCc1cc(Cl)sc12 (single isomer, unassigned) [Compound 212]
IC90 [1]: < 50 nM | Emax [2]: 99%

COC(=O)[C@@H]1C[C@]2(C[C@@H](C)N1)OCCc1cc(Cl)sc12 (stereo in doubt) [Compound 209, methyl (2'S,6'R,7S)-2-chloro-6'-methyl-spiro[4,5-dihydrothieno[2,3-c]pyran-7,4'-piperidine]-2'-carboxylate]
IC90 [1]: > 500 nM | Emax [2]: 76.7%

C[C@H]1C[C@@]2(C[C@@H](c3cn(C)nn3)N1)OCCc1cc(Cl)sc12 [Compound 1, (2'S, 6'S, 7S)-2-chloro-2'-methyl-6'-(1-methyltriazol-4-yl)spiro[4,5-dihydrothieno[2,3-c]pyran-7,4'-piperidine]]
IC90 [1]: < 50 nM | Emax [2]: 99.3%

C[C@H]1C[C@@]2(C[C@@H](c3cn(C)nn3)N1)OCCc1cc(C(F)(F)F)sc12 [Compound 2, (2'S,6'S,7S)-2'-methyl-6'-(1-methyltriazol-4-yl)-2-(trifluoromethyl)spiro[4,5-dihydrothieno[2,3-c]pyran-7,4'-piperidine]]
IC90 [1]: < 50 nM | Emax [2]: 100%

CCc1cc2c(s1)CCO[C@@]21C[C@@H](c2cnn(CCS(C)(=O)=O)c2)N[C@@H](C)C1 [Compound 5]
IC90 [1]: 50 to 500 nM | Multi-Tox Assay Max Activity (%) [2]: 100.0%

C[C@H]1C[C@@]2(C[C@@H](c3cn(C)nn3)N1)OCCc1sc(C(F)(F)F)cc12 [Compound 8, (2'S,4S,6'S)-2'-methyl-6'-(1-methyltriazol-4-yl)-2-(trifluoromethyl)spiro[6,7-dihydrothieno[3,2-c]pyran-4,4'-piperidine]]
IC90 [1]: < 50 nM | Multi-Tox Assay Max Activity (%) [2]: 100.0%

CC1CC2(CC(c3cnn(CCS(C)(=O)=O)c3)N1)OCCc1sc(C(F)(F)F)cc12 (centres unmarked) [Compound 9]
IC90 [1]: 50 to 500 nM | Multi-Tox Assay Max Activity (%) [2]: 100.0%

Reference: patent publication EP4810040A2, “INHIBITORS OF APOL1 AND METHODS OF USING SAME” (priority 2020, dated 2022)
